{
  "source": "paper PMC10611619",
  "about": "“[^99mTc]Tc-PentixaTec: development, extensive pre-clinical evaluation, and first human experience” (European Journal of Nuclear Medicine and Molecular Imaging, 2023)",
  "key": {"[1]": {"biological_target": "human CXCR4 (hCXCR4) (Homo sapiens, UniProt P61073)", "sequence (P61073 whole entry)": "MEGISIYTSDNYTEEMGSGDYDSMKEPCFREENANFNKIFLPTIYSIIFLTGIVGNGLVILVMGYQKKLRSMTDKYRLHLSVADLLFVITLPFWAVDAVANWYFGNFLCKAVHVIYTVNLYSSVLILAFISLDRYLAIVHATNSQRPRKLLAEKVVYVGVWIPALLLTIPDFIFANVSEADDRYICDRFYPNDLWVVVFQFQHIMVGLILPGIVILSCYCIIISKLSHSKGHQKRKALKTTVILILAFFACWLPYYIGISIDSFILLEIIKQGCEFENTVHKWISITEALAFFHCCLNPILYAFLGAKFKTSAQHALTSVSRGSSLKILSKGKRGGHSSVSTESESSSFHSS", "test": "Competitive binding to hCXCR4 (IC50), Jurkat cells, [^125I]FC-131 as radioligand", "settings": "[^125I]FC-131 radioligand"}, "[2]": {"tested_on": "mCXCR4", "settings": "Eµ-myc 1080 mouse lymphoma cells; cited from earlier work"}, "[3]": {"tested_on": "hCXCR4 expressing Chem-1 cells", "test": "Dual tracer internalization studies with [^125I]FC-131 as internal reference", "type": "cell-based, human", "settings": "for internalization in % of total activity / Internalization (% of reference): 90 min; for Internalization (% of reference): normalized to specific internalization of [^125I]FC-131, Chem-1 cells; for internalization area under the curve (AUC): internalization kinetics, Fig. 1", "method": "Dual tracer internalization studies using [^125I]FC-131 as internal reference were conducted in hCXCR4 expressing Chem-1 cells in analogy to a previously established protocol. A detailed assay protocol is provided in the supplementary material section.\nOn the day prior to the experiment, Chem-1 cells were seeded in 24-well-plates at a density of app. 1·10^5 cells per well. On the day of the experiment, the culture medium was removed and the cells were washed once with 250 µL of unsupplemented medium before being left to equilibrate in 200 µL of assay medium (DMEM/F-12 containing 5% BSA) at 37°C for a minimum of 15 min before the experiment. Cells were then coincubated with the respective ^99mTc-labeled compound of interest (0.2 nM) and [^125I]FC-131 (0.2 nM) in the absence (total binding) or presence (non-specific binding) of 100 µM AMD3100 for different time points up to 120 min at 37°C (n=3 wells, respectively, per time point). Incubation was terminated by placing the plate on an ice pack for app. 1 min and by subsequent removal of the incubation medium. Cells were thoroughly rinsed with 250 µL of HBSS. After washing twice with 250 µL of ice cold acid wash buffer (0.02 M NaOAc buffered with AcOH to pH = 5), cells were lysed with 250 µL of 1 N NaOH. The lysate was tranferred to vials and combined with 250 µL of HBSS used for rinsing the wells. Quantification of the amount of free, acid-releasable and internalized ^99mTc- and ^125I-activity was performed using dual isotope protocol on a WIZARD^2® 2480 automatic γ-Counter (Perkin Elmer, Waltham MA, USA).\nAll data were corrected for non-specific internalization in the presence of […] AMD3100 and were then normalized to the specific internalization observed of the standard radioligand [^125I]FC-131."}, "[4]": {"test": "Biodistribution in Jurkat xenograft-bearing mice, 1 h p.i.", "type": "in vivo", "settings": "female, CB17/SCID, mouse, iv, total radioactivity, n = 5, mean ± SD", "method": "(§1) Female CB17/SCID mice bearing subcutaneous Jurkat human T cell lymphoma xenografts (for more detailed information, see supplemental material) were injected intravenously with the respective ^99mTc-labeled tracer (5–20 MBq, 0.1–0.2 nmol/mouse) under isofluorane anesthesia and were sacrificed at 1 h post-injection (p.i.). The organs of interest were dissected, and the activity concentration in weighed tissue samples was quantified using a WIZARD^2® 2480 automatic γ-Counter from Perkin Elmer (Waltham MA, USA). Biodistribution data are given in %iD/g and represent means ± SD (groups of n = 4–5 animals). Statistical analysis (t-test) was performed using GraphPad Prism.\n(§2) To establish tumor xenografts, Jurkat cells (2 – 3x10^7 cells) were suspended in a mixture of RPMI 1640 medium and Matrigel (1/1; v/v) (BD Biosciences, Heidelberg, Germany), and injected subcutaneously into the right shoulder of 6–10 weeks old CB17-SCID mice from either Charles River GmbH (Sulzfeld, Germany) or the in-house mouse breeding facility. As soon as tumors had grown to a diameter of 5–8 mm (4 – 10 weeks after inoculation), mice were used for the experiments."}, "[5]": {"tested_on": "Jurkat xenograft bearing CB17/SCID mice", "test": "Biodistribution in Jurkat xenograft-bearing mice, 1 h p.i.", "type": "in vivo", "settings": "Jurkat xenograft, n = 5, mean ± SD", "method": "as §1, §2"}, "[6]": {"test": "Lipophilicity (logD), shake-flask n-octanol/PBS pH 7.4", "type": "physicochemical", "method": "The lipophilicity (logD, partition coefficient between n-octanol and PBS, pH 7.4) of all ^99mTc-labeled compounds in this study was determined using a modified shake-flask method as described."}, "[7]": {"settings": "in vivo; cited from earlier work"}},
  "note": "Where two headings read alike, the source gives them in different places. Where a SMILES comes first, the peptide text is derived from it. Bridges are numbered along the chain shown (N, C = ends). Roman numbers before positions name the chains, in order. Side-chain parts run from the residue outwards. [ ]: non-standard residue; d: D form. The star is where a group is joined. DOTA = O=C(O)CN1CCN(CC(=O)O)CCN(CC(=O)*)CCN(CC(=O)O)CC1; dTyr(3-I) = N[C@H](Cc1ccc(O)c(I)c1)C(=O)O; 2Nal = N[C@@H](Cc1ccc2ccccc2c1)C(=O)O; dNMeOrn = CN[C@H](CCCN)C(=O)O; HYNIC = NNc1ccc(C(=O)*)cn1; 4Amb = NCc1ccc(C(=O)O)cc1; Mercaptoacetyl = O=C(CS)*; 4Abz = Nc1ccc(C(=O)O)cc1; dDap = NC[C@@H](N)C(=O)O",
  "data": [
    {"smiles": "C[C@@H](NC(=O)[C@@H](CCCNC(=N)N)NC(=O)[C@@H](CN)NC(=O)[C@@H](CO)NC(=O)[C@@H](CO)NC(=O)[C@@H](CO)NC(=O)CS)C(=O)Nc1ccc(C(=O)NCCC[C@@H]2C(=O)N[C@@H](CCCNC(=N)N)C(=O)N[C@@H](Cc3ccc4ccccc4c3)C(=O)NCC(=O)N[C@H](Cc3ccc(O)cc3)C(=O)N2C)cc1", "note": "[mas3-L6-CPCR4, mas3-dap-r-a-Abz-CPCR4] (I: Mercaptoacetyl-[dS][dS][dS][dDap][dR][dA][4Abz] / II: cyclo([dY][dNMeOrn]R[2Nal]G); amide I:C-II:2)", "values": [
      {"measurement": "IC50", "setting": "[1]", "value": "0.005 ± 0.0013", "unit": "µM"}
    ]},
    {"smiles": "CN1C(=O)[C@@H](Cc2ccc(O)c(I)c2)NC(=O)CNC(=O)[C@H](Cc2ccc3ccccc3c2)NC(=O)[C@H](CCCNC(=N)N)NC(=O)[C@H]1CCCNC(=O)c1ccc(CNC(=O)CN2CCN(CC(=O)O)CCN(CC(=O)O)CCN(CC(=O)O)CC2)cc1", "note": "[^natLu-PentixaTher, metal not drawn] (cyclo([dTyr(3-I)][dNMeOrn]([4Amb-DOTA])R[2Nal]G); ring closure inferred)", "values": [
      {"measurement": "IC50", "setting": "[2]", "value": "0.567 ± 0.062", "unit": "µM"}
    ]},
    {"smiles": "C[C@@H](NC(=O)[C@@H](CCCNC(=N)N)NC(=O)[C@@H](CN)NC(=O)c1ccc(NN)nc1)C(=O)Nc1ccc(C(=O)NCCC[C@@H]2C(=O)N[C@@H](CCCNC(=N)N)C(=O)N[C@@H](Cc3ccc4ccccc4c3)C(=O)NCC(=O)N[C@H](Cc3ccc(O)cc3)C(=O)N2C)cc1", "note": "[[^99mTc]Tc-HYNIC-L6-CPCR4, metal not drawn] (cyclo([dY][dNMeOrn]([4Abz-dA-dR-dDap-HYNIC])R[2Nal]G))", "values": [
      {"measurement": "internalization in % of total activity", "setting": "[3]", "value": 77, "unit": "%"},
      {"measurement": "Internalization (% of reference)", "setting": "[3]", "value": "503 (90 min) % of reference"},
      {"measurement": "internalization area under the curve (AUC)", "setting": "[3]", "value": 2370},
      {"measurement": "tissue uptake at 1 h", "setting": "[4]; blood, read-out: Biodistribution Blood", "value": "1.6 ± 0.6", "unit": "%ID/g"},
      {"measurement": "tissue uptake at 1 h", "setting": "[4]; femur, read-out: Biodistribution Femur", "value": "0.8 ± 0.4", "unit": "%ID/g"},
      {"measurement": "tissue uptake at 1 h", "setting": "[4]; heart, read-out: Biodistribution Heart", "value": "0.8 ± 0.3", "unit": "%ID/g"},
      {"measurement": "tissue uptake at 1 h", "setting": "[4]; intestines, read-out: Biodistribution Intestines", "value": "0.6 ± 0.1", "unit": "%ID/g"},
      {"measurement": "tissue uptake at 1 h", "setting": "[4]; kidneys, read-out: Biodistribution Kidneys", "value": "29.5 ± 4.4", "unit": "%ID/g"},
      {"measurement": "tissue uptake at 1 h", "setting": "[4]; liver, read-out: Biodistribution Liver", "value": "2.6 ± 0.2", "unit": "%ID/g"},
      {"measurement": "tissue uptake at 1 h", "setting": "[4]; lung, read-out: Biodistribution Lung", "value": "1.9 ± 0.4", "unit": "%ID/g"},
      {"measurement": "tissue uptake at 1 h", "setting": "[4]; muscle, read-out: Biodistribution Muscle", "value": "1.5 ± 1.1", "unit": "%ID/g"},
      {"measurement": "tissue uptake at 1 h", "setting": "[4]; pancreas, read-out: Biodistribution Pancreas", "value": "0.4 ± 0.3", "unit": "%ID/g"},
      {"measurement": "tissue uptake at 1 h", "setting": "[4]; spleen, read-out: Biodistribution Spleen", "value": "2.4 ± 1.1", "unit": "%ID/g"},
      {"measurement": "tissue uptake at 1 h", "setting": "[4]; stomach, read-out: Biodistribution Stomach", "value": "2 ± 0.7", "unit": "%ID/g"},
      {"measurement": "Biodistribution Tumor (tumor accumulation)", "setting": "[5]", "value": "8.0 ± 2.2", "unit": "%iD/g"}
    ]},
    {"smiles": "C[C@@H](NC(=O)[C@@H](CCCNC(=N)N)NC(=O)[C@@H](CN)NC(=O)[C@@H](CO)NC(=O)[C@@H](CO)NC(=O)[C@@H](CO)NC(=O)CS)C(=O)Nc1ccc(C(=O)NCCC[C@@H]2C(=O)N[C@@H](CCCNC(=N)N)C(=O)N[C@@H](Cc3ccc4ccccc4c3)C(=O)NCC(=O)N[C@H](Cc3ccc(O)cc3)C(=O)N2C)cc1", "note": "[[^99mTc]Tc-mas3-L6-CPCR4, metal not drawn] (I: Mercaptoacetyl-[dS][dS][dS][dDap][dR][dA][4Abz] / II: cyclo([dY][dNMeOrn]R[2Nal]G); amide I:C-II:2)", "values": [
      {"measurement": "internalization in % of total activity", "setting": "[3]", "value": 80, "unit": "%"},
      {"measurement": "Internalization (% of reference)", "setting": "[3]", "value": "525 (90 min) % of reference"},
      {"measurement": "internalization area under the curve (AUC)", "setting": "[3]", "value": 2430},
      {"measurement": "Biodistribution Tumor (tumor accumulation)", "setting": "[5]", "value": "6.6 ± 1.0", "unit": "%iD/g"}
    ]},
    {"smiles": "CN1C(=O)[C@@H](Cc2ccc(O)cc2)NC(=O)CNC(=O)[C@H](Cc2ccc3ccccc3c2)NC(=O)[C@H](CCCNC(=N)N)NC(=O)[C@H]1CCCNC(=O)c1ccc(NN)nc1", "note": "[[^99mTc]Tc-HYNIC-CPCR4, cyclo(D-Tyr-N-Me-D-Orn([^99mTc]Tc-HYNIC)-Arg-2-Nal-G), metal not drawn] (cyclo([2Nal]G[dY][dNMeOrn](HYNIC)R))", "values": [
      {"measurement": "Lipophilicity (logD)", "setting": "[6]", "value": "− 1.84"},
      {"measurement": "effective dose per unit of administered activity", "setting": "[7]", "value": 3.92, "unit": "E − 03 mSv/MBq"}
    ]}
  ]
}
